Consider nine compounds from patent US12398121B2 (Nuvation Bio Inc., priority 2018, dated 2025).

For one experiment, the system named is 22RV1 cells. The experiment in a line: Cell proliferation assay (CellTiter Glo), 22RV1. It is filed as cell-based. The following applies: Homo sapiens, 22Rv1, 72 h, read-out: 22RV1 IC50. How it is done: IC50 values were calculated and graphed using the model “log(inhibitor) vs. response—Variable slope” included in GraphPad Prism 5 (San Diego, CA). The Ki values were further calculated using the equation below where [L] was the radioligand concentration (1 nM) using in this study. Kd value was 0.332 nM. Ki=IC50/(1+[L]/Kd) c. AR transactivation: Human AR cloned into a CMV vector backbone was used for the transactivation study. HEK-293 cells were plated at 80,000 cells per well of a 24 well plate in DME+5% csFBS. Twenty four hours later, the cells were transfected using Lipofectamine (Invitrogen, Carlsbad, CA) with 0.25 μg GRE-LUC, 0.01 μg CMV-LUC (renilla luciferase) and 25 ng of the AR in OPTIMEM medium. The cells were treated 24 hrs after transfection with various ligands (10^−12 to 10^−5 M final concentrations) and luciferase assay were performed 48 hours after transfection. Firefly values were normalized to renilla luciferase values and the values were represented as relative light units (RLU). Agonist and antagonist assays for the test article were performed in the absence and in the combination with 0.1 nM R1881, respectively. Data were represented as EC50 (for agonists) and IC50 (for antagonists) obtained from four parameter logistics curve. Cell culture and proliferation assays: LNCaP, PC-3, 22RV1, MCF-7, HT-29, and HCT-116 cells were procured from American Type Culture Collection (ATCC). Cells were cultured in medium recommended by the ATCC. Cell culture medium was obtained from Fisher scientific (Waltham, MA) and serum was obtained from Hyclone (San Angelo, TX).
Cells were plated at varying density in the respective growth medium in 96 well plates. 24 hr later, cells were treated, in triplicate or quadruplicate, with test articles prepared in a range of concentrations by series dilution of DMSO stock solutions in growth medium and incubated for three to seven days. The number of viable 22RV1 and HT-29 cells was measured using CellTiter Glo assay (CTG, Promega, Madison, WI) after three days of treatment. The other types of cancer cells were re-treated at three or four days and the number of viable cells was measured using CTG assay after a total treatment time of six or seven days. Cell viability data were plotted using GraphPad Prism (GraphPad Software, Inc., San Diego, CA). In addition, a nonlinear regression model with a sigmoidal dose response and variable slope within GraphPad Prism was used to calculate the IC50 value of individual test articles. Additional cell proliferation assays: Other cancer cell lines are tested in a cell proliferation assay. For example, SK-OV-3 or OVCAR3 ovarian cancer cells are tested. Cells are cultured in medium recommended by the supplier (e.g., ATCC or JCRB Cell Bank), at 37° C. in a 5% CO2 environment. For the proliferation assay, cells are plated in the growth medium in 96 well plates. Seeding density is adjusted according to the cell type. 24 hr later, cells are treated, in triplicate or quadruplicate, with test articles prepared in a range of concentrations by series dilution of DMSO stock solutions in growth medium, and typically incubated for three to seven days, with test article-containing medium replaced after three or four days. The number of viable cells is measured using CellTiter Glo assay (CTG, Promega, Madison, WI) or similar. Cell viability data are plotted using GraphPad Prism (GraphPad Software, Inc., San Diego, CA). In addition, a nonlinear regression model with a sigmoidal dose response and variable slope within GraphPad Prism is used to calculate the IC50 value of individual test articles. Similarly, HEK-293 and HeLa calls can also be tested by methods known in the art. • f. Nuclear translocation: LNCaP cells are plated on coverslips in 24 well plates in growth medium. Twenty-four hours after plating, medium is changed to RPMI+1% csFBS and the cells are maintained in this medium for two days. Medium is replaced again and the cells are treated. […]

The next experiment has as its target Human recombinant PARP2 (Homo sapiens, UniProt Q9UGN5). The experiment in a line: RBC HotSpot PARP2 radioisotope-based filter binding assay. In kind it is biochemical. How it is done:
The following methods are for evaluating the in vitro biology properties of the test articles. • a. RBC HotSpot Poly(ADP-ribose) Polymerases 1 (PARP1) and Poly(ADP-ribose) Polymerases 2 (PARP2) Assays: The assay principle is radioisotope-based filter binding assay where incorporation of radioisotope-labeled NAD^+ into the substrate captured on filter is detected after washout free NAD^+. Data were analyzed using Excel and GraphPad Prism software for IC50 curve fits. Each assay was conducted with PJ34 as a positive control. • i. PARP1 assay: Human recombinant PARP1 at a final concentration of 2.5 nM was combined with histone H4 (20 μM) and test articles at various concentrations in reaction buffer (50 mM Tris-HCL, pH 8.0, 50 mM NaCl, 10 mM MgCl2, 1 mM DTT, 1% DMSO, and 20 μg/mL activated DNA). The solution was inoculated for 20 min at room temperature and the reaction initiated by adding [adenylate-^32P]-Nicotinamide Adenine Dinucleotide, ^32P-NAD^+ at a final concentration of 10 μM. After incubation for 2 hour at room temperature, the reaction mixture was filtered and washed with 0.75% phosphoric acid for radioactivity detection. • ii. PARP2 assay: Human recombinant PARP2 at a final concentration of 2.5 nM was combined with histone H3 (20 μM) and test articles at various concentrations in reaction buffer (50 mM Tris-HCL, pH 8.0, 50 mM NaCl, 10 mM MgCl2, 1 mM DTT, 1% DMSO, and 20 μg/mL activated DNA). The solution was inoculated for 20 min at room temperature and the reaction was initiated by adding [adenylate-^32P]-Nicotinamide Adenine Dinucleotide, ^32P-NAD^+ at a final concentration of 10 μM. After incubation for 2 hour at room temperature, the reaction mixture was filtered and washed with 0.75% phosphoric acid for radioactivity detection. • b. AR binding assay: AR in LNCaP cytosol was used for determining the binding affinity of test articles and the reference compound—progesterone (Sigma, Cat: E2785, St. Louis, MO). IC50s were determined using 8 concentrations/compound. Cytosol was plated at 200 μg/well (100 μL) into a 96-well conical polypropylene plate (Agilent, Cat: 5042-1385, Santa Clara, CA) and mixed with 3 μL of test compound. After adding 100 μL of ^3H-methyltrienolone (PerkinElmer, Cat: NET590250UC, San Jose, CA), the plate was sealed and shaken at 300 rpm at 4° C. for 24 hours. Post incubation, 100 μL of radioligand adsorption buffer containing 10 mM Tris-HCl, pH 7.4; 1.5 mM EDTA; 1 mM DTT; 0.25% charcoal; 0.0025% dextran was added to individual well. Plate was shaken for 15 min at 4′C followed by centrifugation at 3000 rpm for 30 min at 4° C. 150 μL of supernatant was transferred into scint-tube (PerkinElmer, Cat: 6000192) and mixed with 2 mL of Ultima Gold Cocktail (PerkinElmer, Cat: 6013329). Radioactivity was counted using a TriCarb 2910 TR scintillation counter (PerkinElmer). Inhibition of the radioactivity by test articles were calculated using the equation below: % Inhibition=(1−(Assay well−Average_LC)/(Average_HC−Average_LC))×100%.

The mark [1] stands for this setting: cell growth inhibition, three days of treatment.
[2] abbreviates: 2.5 nM enzyme, histone H3, 10 μM 32P-NAD+, read-out: PARP2 IC50.

Read-outs that look alike come from different tables or passages of the source.

Human recombinant PARP2, sequence (Q9UGN5 whole entry): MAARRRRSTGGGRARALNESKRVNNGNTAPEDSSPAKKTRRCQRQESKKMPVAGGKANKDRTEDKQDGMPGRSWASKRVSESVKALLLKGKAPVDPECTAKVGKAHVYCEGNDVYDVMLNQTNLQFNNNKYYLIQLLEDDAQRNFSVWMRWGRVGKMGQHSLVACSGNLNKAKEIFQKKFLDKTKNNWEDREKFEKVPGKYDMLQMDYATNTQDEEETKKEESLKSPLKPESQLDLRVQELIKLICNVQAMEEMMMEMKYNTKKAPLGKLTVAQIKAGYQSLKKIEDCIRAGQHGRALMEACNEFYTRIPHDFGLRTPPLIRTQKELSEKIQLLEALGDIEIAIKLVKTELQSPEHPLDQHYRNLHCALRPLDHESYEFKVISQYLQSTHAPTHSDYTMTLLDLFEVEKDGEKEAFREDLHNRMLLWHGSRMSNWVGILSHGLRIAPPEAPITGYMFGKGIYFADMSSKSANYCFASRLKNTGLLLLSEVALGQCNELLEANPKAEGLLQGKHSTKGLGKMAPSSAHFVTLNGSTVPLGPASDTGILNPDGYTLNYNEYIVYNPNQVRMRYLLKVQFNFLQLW

As to `C[C@](O)(CS(=O)(=O)c1ccc(NCC(=O)N2CCN(C(=O)c3cc(Cc4n[nH]c(=O)c5ccccc45)ccc3F)CC2)cc1)C(=O)Nc1ccc(C#N)c(C(F)(F)F)c1` [Compound 1.98, (R)-N-(4-cyano-3-(trifluoromethyl)phenyl)-3-(4-(2-(4-(2-fluoro-5-((4-oxo-3,4-dihydrophthalazin-1-yl)methyl)benzoyl)piperazin-1-yl)-2-oxoethylamino)phenylsulfonyl)-2-hydroxy-2-methylpropanamide], the IC50 – broadly, the concentration needed to halve the response being measured – with 22RV1 cells came to 3500 nM; on Human recombinant PARP2, 0.1 nM.
Turning to `C[C@](O)(CS(=O)(=O)c1ccc(NCCN2CCN(C(=O)c3cc(Cc4n[nH]c(=O)c5ccccc45)ccc3F)CC2)cc1)C(=O)Nc1ccc(C#N)c(C(F)(F)F)c1` [Compound 1.99, (R)-N-(4-cyano-3-(trifluoromethyl)phenyl)-3-(4-(2-(4-(2-fluoro-5-((4-oxo-3,4-dihydrophthalazin-1-yl)methyl)benzoyl)piperazin-1-yl)ethylamino)phenylsulfonyl)-2-hydroxy-2-methylpropanamide], the IC50 with 22RV1 cells was found to be 3600 nM; on Human recombinant PARP2, 0.2 nM.
Turning to `C[C@]12CCC(=O)C[C@@H]1CC[C@@H]1[C@@H]2CC[C@]2(C)[C@@H](OCCOCC(=O)N3CCN(C(=O)c4cc(Cc5n[nH]c(=O)c6ccccc56)ccc4F)CC3)CC[C@@H]12` [Compound 1.104, 4-(3-(4-(2-(2-((5S,8R,9S,10S,13S,14S,17S)-10,13-dimethyl-3-oxohexadeca hydro-1H-cyclopenta[a]phenanthren-17-yloxy)ethoxy)acetyl)piperazine-1-carbonyl)-4-fluorobenzyl)phthalazin-1(2H)-one], the IC50 with 22RV1 cells (setting [1]) came out at 1100 nM; on Human recombinant PARP2 (setting [2]), 0.3 nM.
Taken in the same sequence, the figures for `C[C@]12CCC(=O)C[C@@H]1CC[C@@H]1[C@@H]2CC[C@@]2(C)[C@H]1CC[C@@]2(O)c1cn(CC(=O)N2CCN(C(=O)c3cc(Cc4n[nH]c(=O)c5ccccc45)ccc3F)CC2)nn1` [Compound 1.107, 4-(4-fluoro-3-(4-(2-(4-((5S,8R,9S,10S,13S,14S,17S)-17-hydroxy-10,13-dimethyl-3-oxohexadecahydro-1H-cyclopenta[a]phenanthren-17-yl)-1H-1,2,3-triazol-1-yl)acetyl)piperazine-1-carbonyl)benzyl)phthalazin-1(2H)-one] were 1300 nM and 0.1 nM.
Regarding `C[C@]12CCC(=O)C[C@@H]1CC[C@@H]1[C@@H]2CC[C@]2(C)[C@@H](OCC(=O)N3CCN(C(=O)c4cc(Cc5n[nH]c(=O)c6ccccc56)ccc4F)CC3)CC[C@@H]12` [Compound 1.110, 4-(3-(4-(2-((5S,8R,9S,10S,13S,14S,17S)-10,13-dimethyl-3-oxohexadecahydro-1H-cyclopenta[a]phenanthren-17-yloxy)acetyl)piperazine-1-carbonyl)-4-fluorobenzyl)phthalazin-1(2H)-one], the IC50 in the experiment on 22RV1 cells (setting [1]) was 840 nM; at Human recombinant PARP2 (setting [2]), 0.2 nM.
For `C[C@]12CCC(O)C[C@@H]1CC[C@@H]1[C@@H]2CC[C@]2(C)[C@@H](OCCCCCC(=O)N3CCN(C(=O)c4cc(Cc5n[nH]c(=O)c6ccccc56)ccc4F)CC3)CC[C@@H]12` (stereo partly drawn) [Compound 1.111, 4-(4-fluoro-3-(4-(6-((5S,8R,9S,10S,13S,14S,17S)-3-hydroxy-10,13-dimethylhexadecahydro-1H-cyclopenta[a]phenanthren-17-yloxy)hexanoyl)piperazine-1-carbonyl)benzyl)phthalazin-1(2H)-one], the IC50 in the experiment on 22RV1 cells (setting [1]) stood at 890 nM; at Human recombinant PARP2 (setting [2]) it was 0.2 nM.
On to `C[C@]12CCC(F)(F)C[C@@H]1CC[C@@H]1[C@@H]2CC[C@]2(C)[C@@H](OCCCCCC(=O)N3CCN(C(=O)c4cc(Cc5n[nH]c(=O)c6ccccc56)ccc4F)CC3)CC[C@@H]12` [Compound 1.114, 4-(3-(4-(6-((5S,8R,9S,10S,13S,14S,17S)-3,3-difluoro-10,13-dimethylhexadecahydro-1H-cyclopenta[a]phenanthren-17-yloxy)hexanoyl)piperazine-1-carbonyl)-4-fluorobenzyl)phthalazin-1(2H)-one], for which the IC50 in the experiment on 22RV1 cells (setting [1]) came to 1300 nM; at Human recombinant PARP2 (setting [2]) it was 1.9 nM.
In the case of `C[C@]12CCC(=O)C[C@@H]1CC[C@@H]1[C@@H]2CC[C@@]2(C)[C@H]1CC[C@@]2(O)C#CC(=O)N1CCN(C(=O)c2cc(Cc3n[nH]c(=O)c4ccccc34)ccc2F)CC1` [Compound 1.116, 4-(4-fluoro-3-(4-(3-((5S,8R,9S,10S,13S,14S,17S)-17-hydroxy-10,13-dimethyl-3-oxohexadecahydro-1H-cyclopenta[a]phenanthren-17-yl)propioloyl)piperazine-1-carbonyl)benzyl)phthalazin-1(2H)-one], the IC50 with 22RV1 cells (setting [1]) was 2600 nM; on Human recombinant PARP2 (setting [2]), 0.2 nM.
On to `C[C@]12CCC(=O)C[C@@H]1CC[C@@H]1[C@@H]2CC[C@@]2(C)[C@H]1CC[C@@]2(O)C#CCN1CCN(C(=O)c2cc(Cc3n[nH]c(=O)c4ccccc34)ccc2F)CC1` [Compound 1.118, 4-(4-fluoro-3-(4-(3-((5S,8R,9S,10S,13S,14S,17S)-17-hydroxy-10,13-dimethyl-3-oxohexadecahydro-1H-cyclopenta[a]phenanthren-17-yl)prop-2-ynyl)piperazine-1-carbonyl)benzyl)phthalazin-1(2H)-one], for which the values for the IC50 in the experiment with 22RV1 cells (setting [1]) and at Human recombinant PARP2 (setting [2]) were 9700 nM and 1 nM, respectively.
